In patent US5356921A, “Imidazolylphenol compounds, pharmaceutical compositions containing them, and processes for preparing such compounds and compositions” (Gruenenthal GmbH, priority 1992, dated 1994):

Tests used:
thromboxane synthase = biological target: T1, thromboxane synthase (Homo sapiens, UniProt P24557); assay: Inhibition of thromboxane synthase (human thrombocytes); assay type: cell-based; conditions: for IC50: human thrombocytes, arachidonic acid 3.5 μM, read-out: IC50-Value, inhibition of thromboxane synthase (TXB2 formation); for inhibitory action on thromboxane synthase: in words
T1 construct: human thrombocytes were isolated from platelet-rich plasma; endogenous in cells; host or cells: human thrombocytes (platelets), intact
T1 sequence (P24557 1-533): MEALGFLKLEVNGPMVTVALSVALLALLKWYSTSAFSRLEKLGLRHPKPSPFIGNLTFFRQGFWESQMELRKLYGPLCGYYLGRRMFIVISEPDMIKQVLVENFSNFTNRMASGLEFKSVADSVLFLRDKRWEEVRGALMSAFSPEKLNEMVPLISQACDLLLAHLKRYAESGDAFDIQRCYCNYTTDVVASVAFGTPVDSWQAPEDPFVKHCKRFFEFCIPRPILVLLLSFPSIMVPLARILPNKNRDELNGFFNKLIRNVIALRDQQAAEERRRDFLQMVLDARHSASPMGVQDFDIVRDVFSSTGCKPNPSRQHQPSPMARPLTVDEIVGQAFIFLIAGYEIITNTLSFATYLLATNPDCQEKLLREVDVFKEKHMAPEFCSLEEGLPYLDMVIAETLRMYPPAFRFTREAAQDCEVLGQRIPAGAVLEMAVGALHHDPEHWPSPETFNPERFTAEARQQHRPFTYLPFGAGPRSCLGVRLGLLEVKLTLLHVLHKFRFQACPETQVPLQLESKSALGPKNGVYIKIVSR
Experimental: After addition of prostacyclin, human thrombocytes were isolated from platelet-rich plasma and suspended in Tyrode-Hepes buffer of pH 7.4 at 2×10^8 cells/ml. One ml aliquots of cells were incubated either with a compound according to the invention (0.1 to 100 μM) or a solvent (ethanol and/or dimethyl sulfoxide) at 37° C. for 3 minutes and thereafter with radioactively labelled arachidonic acid (3.5 μM) for 5 minutes. The reaction was stopped and the metabolites of arachidonic acid were extracted by adding methanol, chloroform and formic acid. After evaporation of the chloroform-containing layer to dryness under nitrogen, the residue obtained was resuspended in 50 μl chloroform and analyzed by thin layer chromatography. The distribution of the radioactivity of the different metabolites of arachidonic acid was measured using a TLC linear analyzer.

5-lipoxygenase [1] = biological target: T2, 5-lipoxygenase (Rattus norvegicus, UniProt P12527); assay: Inhibition of 5-lipoxygenase in RBL-1-cells; assay type: cell-based; conditions: 20 μM [14C]-arachidonic acid, 20 μM A 23 187
T2 construct: endogenous in cells; host or cells: RBL-1 cells (rat basophilic leukemia), intact
T2 sequence (P12527 1-673): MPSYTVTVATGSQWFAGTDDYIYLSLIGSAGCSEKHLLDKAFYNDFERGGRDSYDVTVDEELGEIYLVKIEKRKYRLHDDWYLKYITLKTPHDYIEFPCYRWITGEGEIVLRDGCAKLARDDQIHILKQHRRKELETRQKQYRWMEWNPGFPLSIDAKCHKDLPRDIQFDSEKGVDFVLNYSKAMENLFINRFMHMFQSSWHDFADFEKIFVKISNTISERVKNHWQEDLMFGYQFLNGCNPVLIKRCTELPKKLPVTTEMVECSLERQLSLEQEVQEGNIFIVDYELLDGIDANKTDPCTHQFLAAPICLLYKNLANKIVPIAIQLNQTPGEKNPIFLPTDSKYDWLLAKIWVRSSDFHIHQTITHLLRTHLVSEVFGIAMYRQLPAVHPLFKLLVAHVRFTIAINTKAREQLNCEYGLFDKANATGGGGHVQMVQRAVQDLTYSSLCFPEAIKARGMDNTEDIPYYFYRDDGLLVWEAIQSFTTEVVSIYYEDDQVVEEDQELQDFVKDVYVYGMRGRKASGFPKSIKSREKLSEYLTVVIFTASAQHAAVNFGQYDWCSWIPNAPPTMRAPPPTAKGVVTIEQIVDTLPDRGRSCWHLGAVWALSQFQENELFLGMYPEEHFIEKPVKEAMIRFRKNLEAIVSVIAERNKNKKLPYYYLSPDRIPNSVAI
Experimental: To determine the inhibition of 5-lipoxygenase rat basophilic leukemia cells (RBL-1-cells) were cultured in vitro, harvested by centrifugation, washed with 50 mM potassium phosphate buffer of pH 7.4, and then suspended in this buffer at 1×10^7 cells/mi. To 1 ml each of this suspension there was added indomethacin (10 μM) and calcium chloride (2 mM), and then the mixture was incubated in the absence or presence of a compound according to the invention in a concentration range of from 0.1 μM to 100 μM for 3 minutes and thereafter with 20 μM of [^14 C]-arachidonic acid and 20 μM of the calcium ionophore A 23 187 for 10 minutes. The reaction was stopped by adding 20 μl of glacial acetic acid, and then the mixture was extracted with ethyl acetate to isolate the metabolites of arachidonic acid formed by the enzymatic action of 5-lipoxygenase. These were separated by thin layer chromatography using a solvent mixture known to be suitable for lipoxygenase products [c.f. Jakschik et al., Biochem. Biophys. Res. Commun. 102, 624 (1981)].
The distribution of the radioactivity among the various metabolites of arachidonic acid was measured using a TLC Linear Analyzer. By correlating the percentages of the amount of the products formed under the action of 5lipoxygenase (5-HETE, isomers of LTB4) in the absence as well as in the presence of different concentrations of compounds according to the invention, the IC50 -values, i.e. the concentrations which cause 50% inhibition of 5-lipoxygenase were determined graphically from semilogarithmic diagrams.

5-lipoxygenase [2] = biological target: T2, 5-lipoxygenase; assay: Inhibition of cell-free 5-lipoxygenase from RBL-1-cells; assay type: biochemical; conditions: 10,000×g supernatant of RBL cells; polarographic; arachidonic acid 75 μM
Experimental: Cell-free 5-lipoxygenase was polarographically measured from 10,000×gsupernatant of homogenized rat basophilic leucemia cells [M. Haurand and L. Flohe in Biol. Chem. Hoppe-Seyler 369, 133-142 (1988)]. After preincubation of the 10,000×g supernatant with arachidonic acid (75 μM), ATP (adenosine triphosphate; 4 μM), reduced glutathione (4 mM), and either a compound according to the invention (0.1 to 100 μM) or a solvent (ethanol and/or dimethyl sulfoxide) at 35° C. for 5 minutes, the lipoxygenase reaction was initiated by addition of calcium chloride (3 mM) and recorded simultaneously.
The activity of 5-lipoxygenase was determined from the difference of the pO2 -decrease before and after addition of calcium chloride. The evaluation included the initial rate of the reaction after the lag-phase as well as the duration of the lag-phase. In a concentration range of from 5 to 10 μM the test substances induced lag-phases of 15 seconds.

Row | IC50 (thromboxane synthase) | IC50 (5-lipoxygenase [1]) | IC50 (5-lipoxygenase [2]) | Compound | inhibitory action on thromboxane synthase (thromboxane synthase)
1 | 2800 nM | 2 µM | 7 µM | NC(=O)N(O)Cc1ccc(Oc2ccc(-n3ccnc3)cc2)cc1 [Example 1, N-hydroxy-N-[4-[4-(1H-imidazol-1-yl)phenoxy]phenylmethyl]urea] | same inhibitory potency as the hydrochloride of the imidazolylethoxybenzoic acid UK 37 248
2 | 2900 nM | 5 µM | 3 µM | CC(=O)N(O)Cc1ccc(Oc2ccc(-n3ccnc3)cc2)cc1 [Example 3, N-hydroxy-N-[4-[4-(1H-imidazol-1-yl)phenoxy]phenylmethyl]acetamide] | same inhibitory potency as the hydrochloride of the imidazolylethoxybenzoic acid UK 37 248
